Results reported in patent US8236354B1, “Use of immunomodulators for the treatment of cancer” (ZOR Pharmaceuticals, LLC, priority 2012, dated 2012).

Key:
[1] = system: advanced pancreatic cancer; conditions: cited from earlier work; for median Overall Survival: survival from study enrollment to death from any cause
[2] = system: advanced (unresectable or metastatic) pancreatic adenocarcinoma; assay: Phase 3 double-blind, randomized, placebo-controlled 3-stage trial: survival and time to symptom progression; assay type: in vivo, human
Protocol: This was a double-blind, multicenter, randomized, 2-arm, parallel group, 3-stage trial. Median survival was the primary end-point calculated from Kaplan-Meier plots of survival of the Intention to Treat data set.
The blood pharmacokinetic profiles of gemcitabine and VIRULIZIN® were assessed by an independent (unblinded) pharmacokinetics assessor. Stage 1 was performed at selected sites. Immune stimulation assays were also to be performed in these patients.
The decision to discontinue patients from Stage 2 and move them into Stage 3 and to continue or discontinue study treatment was at the discretion of the investigator.
However, if the investigator believed further chemotherapy was not in the best interest of the patient (based on hematological profile, symptom progression or no evidence of clinical benefit), the patient continued to receive best supportive care, with or without continued injections of VIRULIZIN® or placebo. The first 18 patients entering Stage 3 and receiving VIRULIZIN® or placebo plus intravenous infusions of 5-FU were to have blood samples taken to assess the pre- and post-dose plasma concentrations of 5-FU.
Male or female patients, aged 18 years or older, with advanced (unresectable or metastatic) pancreatic adenocarcinoma (tumor staging definition—tumor, lymph nodes, metastasis [TNM] stages II, III or IV) who had not received previous systemic chemotherapy, who had Eastern Cooperative Oncology Group (ECOG) Score 0, 1 or 2, and life expectancy greater than or equal to 12 weeks were included in the study.
(§1) VIRULIZIN® or placebo was administered as intramuscular injections of 3 mL with dosing 3 times weekly (Monday, Wednesday, Friday) in Stages 1, 2 and 3.
(§2) Following pain stabilization screening, all randomized patients in Stages 1 and 2 received 30-minute intravenous infusions of gemcitabine at a dose of 1 g/m2 weekly for the first 7 weeks, followed by a week of rest. Subsequent cycles consisted of 28-day cycles with gemcitabine dosing on days 1, 8 and 15. Guidelines for dose reduction in case of toxicity were provided from the Official Product Prescribing Guidelines. Dosing continued until intolerance to gemcitabine developed, or there was symptom progression, or no evidence of clinical benefit. […] The patient's physician made the decision concerning 5-FU chemotherapy or best supportive care.
Efficacy was evaluated based upon survival time, defined as the time from Baseline/Treatment Day 1 to the time of death from any cause. Time to progression of symptoms, consisting of: time to increase in pain (with consideration of analgesic consumption), time to deterioration in ECOG score, and time to weight loss.

[3] = in vivo
Protocol: as §1, §2
Safety was evaluated based upon adverse events (AEs), laboratory tests, and vital signs.

[4] = ECOG 0 or 1, treated in Stage 3, of 25 (VIRULIZIN plus 5-FU) / of 16 (placebo plus 5-FU) patients
[5] = Efficacy evaluable, ECOG 0 or 1, value (95% CI)
[6] = Efficacy evaluable, Overall, value (95% CI)
[7] = Intention to Treat, ECOG 0 or 1, value (95% CI)
[8] = Intention to Treat, Metastatic, value (95% CI)
[9] = Intention to Treat, Overall, value (95% CI)

SMILES: Nc1ccn([C@@H]2O[C@H](CO)[C@@H](O)C2(F)F)c(=O)n1 [gemcitabine]
- increased median survival versus 5-FU ([1]; in vivo): 1.5 months
- median Overall Survival [1]: 5.7 months

SMILES: O=c1[nH]cc(F)c(=O)[nH]1 [Placebo plus 5-FU, 5-fluorouracil]
- number of patients alive (censored) at the end of the study data collection period [2, 4]: None
- percent of patients alive (censored) at the end of the study data collection period [2, 4]: 0%
- Median survival time from entry into study Stage 3 to death from any cause ([2]; Intention to Treat, Stage 3 test product plus 5-FU, ECOG 0 or 1): 2.94 months
- Median survival time from entry into study Stage 3 to death from any cause ([2]; Intention to Treat, Stage 3 test product plus 5-FU, ECOG 2): 3.42 months
- Median survival time from entry into study Stage 3 to death from any cause ([2]; Intention to Treat, Stage 3 test product plus 5-FU, ECOG 2, listed as placebo plus 5-FU): 3.43 months
- Median survival time from entry into study Stage 3 to death from any cause ([2]; Intention to Treat, Stage 3 test product plus 5-FU, Overall): 3.22 months

SMILES: Nc1ccn([C@@H]2O[C@H](CO)[C@@H](O)C2(F)F)c(=O)n1 [Placebo plus gemcitabine, gemcitabine]
- Median survival time, study enrollment to death from any cause [2, 5]: 6.3 (5.0 to 7.2) months
- Percent 12-Month Survival [2, 5]: 20.1 (12.8 to 27.4) %
- Median survival time, study enrollment to death from any cause ([2]; Efficacy evaluable, ECOG 2, value (95% CI)): 5.5 (4.3 to 7.4) months
- Median survival time, study enrollment to death from any cause ([2]; Efficacy evaluable, Locally advanced disease, value (95% CI)): 8.1 (7.1 to 11.2) months
- Median survival time, study enrollment to death from any cause ([2]; Efficacy evaluable, Metastatic disease, value (95% CI)): 5.0 (4.3 to 6.0) months
- Percent 12-Month Survival ([2]; Efficacy evaluable, Metastatic, value (95% CI)): 10.9 (5.4 to 16.4) %
- Median survival time, study enrollment to death from any cause [2, 6]: 6.0 (5.1 to 7.0) months
- Percent 12-Month Survival [2, 6]: 16.9 (11.2 to 22.6) %
- Median survival time, study enrollment to death from any cause ([2]; Efficacy evaluable, Patients participating in study Stage 3, value (95% CI)): 7.4 (6.8 to 8.6) months
- median duration of participation in study Stages 1 and/or 2 ([2]; FIG. 5, 248 Intention to Treat patients who participated in study Stage 3): 6.31 months
- median duration of participation in study Stages 1 and/or 2 ([2]; FIG. 6, Stage 3 participants, High ECOG score of 2): 6.31 months
- median duration of participation in study Stages 1 and/or 2 ([2]; FIG. 6, Stage 3 participants, Low ECOG score of 0 or 1): 7.13 months
- Median survival time from study enrollment to death from any cause [2, 7]: 6.4 (5.0 to 7.3) months
- Percent 12-Month Survival [2, 7]: 21.1 (14.3 to 28.0) %
- Median survival time from study enrollment to death from any cause ([2]; Intention to Treat, ECOG 0 or 1, value (95% CI), listed as placebo and gemcitabine): 6.4 months
- Median survival time from study enrollment to death from any cause ([2]; Intention to Treat, ECOG 0 or 1, value (95% CI), listed as placebo plus gemcitabine): 6.4 months
- Median survival time from study enrollment to death from any cause ([2]; Intention to Treat, ECOG 2, value (95% CI)): 5.1 (4.1 to 6.8) months
- Median survival time from study enrollment to death from any cause ([2]; Intention to Treat, ECOG 2, value (95% CI), listed as placebo and gemcitabine): 5.1 months
- Median survival time from study enrollment to death from any cause ([2]; Intention to Treat, ECOG 2, value (95% CI), listed as placebo plus gemcitabine): 6.4 months
- time to progression of pain from time of randomization ([2]; Intention to Treat, ECOG score of 0 or 1): 9.0 mo
- Median survival time from study enrollment to death from any cause ([2]; Intention to Treat, Locally advanced, value (95% CI)): 8.4 (7.1 to 11.2) months
- Median survival time from study enrollment to death from any cause [2, 8]: 5.0 (4.3 to 6.0) months
- Percent 12-Month Survival [2, 8]: 13.3 (8.0 to 18.6) %
- Median survival time from study enrollment to death from any cause [2, 9]: 6.0 (5.1 to 7.0) months
- Percent 12-Month Survival [2, 9]: 17.7 (12.3 to 23.0) %
- Median survival time from study enrollment to death from any cause ([2]; Intention to Treat, Overall, value (95% CI), listed as placebo plus gemcitabine): 6.0 months
- Median survival time from study enrollment to death from any cause ([2]; Intention to Treat, Patients participating in study Stage 3, value (95% CI)): 7.5 (6.8 to 9.4) months
- Median survival time from study enrollment to death from any cause ([2]; Intention to Treat, Patients participating in study Stage 3, value (95% CI), listed as placebo plus gemcitabine): 7.5 months
- Median survival time from entry into study Stage 3 to death from any cause ([2]; Intention to Treat, Stage 3 test product with or without 5-FU, ECOG 0 or 1): 3.19 months
- Median survival time from entry into study Stage 3 to death from any cause ([2]; Intention to Treat, Stage 3 test product with or without 5-FU, ECOG 2): 2.79 months
- Median survival time from entry into study Stage 3 to death from any cause ([2]; Intention to Treat, Stage 3 test product with or without 5-FU, Overall): 2.96 months
- Median survival time from study enrollment to death from any cause ([2]; Intention to Treat, patients participating in study Stage 3, ECOG 0 or 1): 7.13 months
- Median survival time from study enrollment to death from any cause ([2]; Intention to Treat, patients participating in study Stage 3, ECOG 2): 6.31 months
- Abdominal pain (not otherwise specified): (%) of Patients [3]: (26.2) %
- Abdominal pain (not otherwise specified): Number of Events [3]: 96
- Abdominal pain (not otherwise specified): Number of Patients [3]: 56
- Abdominal pain upper: (%) of Patients [3]: (11.7) %
- Abdominal pain upper: Number of Events [3]: 35
- Abdominal pain upper: Number of Patients [3]: 25
- Alanine aminotransferase increased: (%) of Patients [3]: (7.0) %
- Alanine aminotransferase increased: Number of Events [3]: 21
- Alanine aminotransferase increased: Number of Patients [3]: 15
- Anemia (not otherwise specified): (%) of Patients [3]: (43.9) %
- Anemia (not otherwise specified): Number of Events [3]: 206
- Anemia (not otherwise specified): Number of Patients [3]: 94
- Anorexia: (%) of Patients [3]: (23.8) %
- Anorexia: Number of Events [3]: 71
- Anorexia: Number of Patients [3]: 51
- Ascites: (%) of Patients [3]: (17.8) %
- Ascites: Number of Events [3]: 51
- Ascites: Number of Patients [3]: 38
- Aspartate aminotransferase increased: (%) of Patients [3]: (8.9) %
- Aspartate aminotransferase increased: Number of Events [3]: 27
- Aspartate aminotransferase increased: Number of Patients [3]: 19
- Back pain: (%) of Patients [3]: (9.8) %
- Back pain: Number of Events [3]: 30
- Back pain: Number of Patients [3]: 21
- Blood alkaline phosphatase increased (not otherwise specified): (%) of Patients [3]: (9.8) %
- Blood alkaline phosphatase increased (not otherwise specified): Number of Events [3]: 28
- Blood alkaline phosphatase increased (not otherwise specified): Number of Patients [3]: 21
- Constipation: (%) of Patients [3]: (18.7) %
- Constipation: Number of Events [3]: 57
- Constipation: Number of Patients [3]: 40
- Dehydration: (%) of Patients [3]: (8.9) %
- Dehydration: Number of Events [3]: 26
- Dehydration: Number of Patients [3]: 19
- Diarrhea (not otherwise specified): (%) of Patients [3]: (21.5) %
- Diarrhea (not otherwise specified): Number of Events [3]: 79
- Diarrhea (not otherwise specified): Number of Patients [3]: 46
- Disease progression (not otherwise specified): (%) of Patients [3]: (11.7) %
- Disease progression (not otherwise specified): Number of Events [3]: 25
- Disease progression (not otherwise specified): Number of Patients [3]: 25
- Dyspnea (not otherwise specified): (%) of Patients [3]: (15.4) %
- Dyspnea (not otherwise specified): Number of Events [3]: 46
- Dyspnea (not otherwise specified): Number of Patients [3]: 33
- Edema peripheral: (%) of Patients [3]: (24.3) %
- Edema peripheral: Number of Events [3]: 76
- Edema peripheral: Number of Patients [3]: 52
- Fatigue: (%) of Patients [3]: (36.0) %
- Fatigue: Number of Events [3]: 178
- Fatigue: Number of Patients [3]: 77
- Headache (not otherwise specified): (%) of Patients [3]: (6.5) %
- Headache (not otherwise specified): Number of Events [3]: 42
- Headache (not otherwise specified): Number of Patients [3]: 14
- Jaundice (not otherwise specified): (%) of Patients [3]: (11.7) %
- Jaundice (not otherwise specified): Number of Events [3]: 30
- Jaundice (not otherwise specified): Number of Patients [3]: 25
- Leukopenia (not otherwise specified): (%) of Patients [3]: (13.6) %
- Leukopenia (not otherwise specified): Number of Events [3]: 67
- Leukopenia (not otherwise specified): Number of Patients [3]: 29
- Nausea: (%) of Patients [3]: (42.1) %
- Nausea: Number of Events [3]: 269
- Nausea: Number of Patients [3]: 90
- Neutropenia: (%) of Patients [3]: (32.2) %
- Neutropenia: Number of Events [3]: 212
- Neutropenia: Number of Patients [3]: 69
- Pyrexia: (%) of Patients [3]: (30.4) %
- Pyrexia: Number of Events [3]: 184
- Pyrexia: Number of Patients [3]: 65
- Rash (not otherwise specified): (%) of Patients [3]: (9.3) %
- Rash (not otherwise specified): Number of Events [3]: 26
- Rash (not otherwise specified): Number of Patients [3]: 20
- Rigors: (%) of Patients [3]: (15.4) %
- Rigors: Number of Events [3]: 97
- Rigors: Number of Patients [3]: 33
- Thrombocytopenia: (%) of Patients [3]: (29.9) %
- Thrombocytopenia: Number of Events [3]: 196
- Thrombocytopenia: Number of Patients [3]: 64
- Vomiting (not otherwise specified): (%) of Patients [3]: (29.4) %
- Vomiting (not otherwise specified): Number of Events [3]: 141
- Vomiting (not otherwise specified): Number of Patients [3]: 63
- Weakness: (%) of Patients [3]: (23.8) %
- Weakness: Number of Events [3]: 82
- Weakness: Number of Patients [3]: 51
- Weight decreased: (%) of Patients [3]: (12.1) %
- Weight decreased: Number of Events [3]: 38
- Weight decreased: Number of Patients [3]: 26

SMILES: O=c1[nH]cc(F)c(=O)[nH]1 [5-FU, 5-fluorouracil]
- median Overall Survival [1]: 4.2 months
